In ChEMBL document CHEMBL1275550, “In vitro activity of doripenem, a carbapenem for the treatment of challenging infections caused by gram-negative bacteria, against recent clinical isolates from the United States” (2008):

Tests used:
Format in all cases: functional
Escherichia coli [1] = assay: Antimicrobial activity against Non-ESBL Escherichia coli assessed as resistant isolate by broth microdilution method
Enterobacter cloacae [2] = assay: Antimicrobial activity against Enterobacter cloacae with nonderepressed AmpC beta-lactamsae assessed as resistant isolate by broth microdilution method
Citrobacter [3] = assay: Antimicrobial activity against Citrobacter with derepressed AmpC beta-lactamsae assessed as resistant isolate by broth microdilution method
Proteus mirabilis [4] = assay: Antimicrobial activity against ESBL producing Proteus mirabilis assessed as resistant isolate by broth microdilution method
Citrobacter [5] = assay: Antimicrobial activity against Citrobacter assessed as resistant isolate by broth microdilution method
Proteus mirabilis [6] = assay: Antimicrobial activity against Proteus mirabilis assessed as resistant isolate by broth microdilution method
Klebsiella pneumoniae [7] = assay: Antimicrobial activity against Klebsiella pneumoniae assessed as resistant isolate by broth microdilution method
Serratia marcescens [8] = assay: Antimicrobial activity against ceftazidime non-susceptible Serratia marcescens assessed as susceptible isolate by broth microdilution method in presence of Tazobactam
Pseudomonas aeruginosa [9] = assay: Antimicrobial activity against imipenem susceptible Pseudomonas aeruginosa assessed as resistant isolate by broth microdilution method in presence of Tazobactam
Pseudomonas aeruginosa [10] = assay: Antimicrobial activity against Ceftazidime susceptible Pseudomonas aeruginosa assessed as intermediate isolate by broth microdilution method in presence of tazobactam
Enterobacteriaceae [11] = assay: Antimicrobial activity against Ceftazidime non-susceptible Enterobacteriaceae assessed as resistant isolate by broth microdilution method in presence of tazobactam
Pseudomonas aeruginosa [12] = assay: Antimicrobial activity against imipenem non-susceptible Pseudomonas aeruginosa by broth microdilution method in presence of Tazobactam
Citrobacter [13] = assay: Antimicrobial activity against Citrobacter with derepressed AmpC beta-lactamsae assessed as intermediate isolate by broth microdilution method in presence of Tazobactam
Pseudomonas aeruginosa [14] = assay: Antimicrobial activity against imipenem susceptible Pseudomonas aeruginosa assessed as susceptible isolate by broth microdilution method in presence of Tazobactam
Serratia marcescens [15] = assay: Antimicrobial activity against ceftazidime susceptible Serratia marcescens assessed as susceptible isolate by broth microdilution method in presence of Tazobactam
Acinetobacter [16] = assay: Antimicrobial activity against imipenem susceptible Acinetobacter assessed as susceptible isolate by broth microdilution method in presence of Tazobactam
Enterobacteriaceae [17] = assay: Antimicrobial activity against ceftazidime-susceptible Enterobacteriaceae assessed as resistant isolate by broth microdilution method in presence of Tazobactam
Pseudomonas aeruginosa [18] = assay: Antimicrobial activity against ceftazidime susceptible Pseudomonas aeruginosa by broth microdilution method in presence of Tazobactam
Klebsiella pneumoniae [19] = assay: Antimicrobial activity against ESBL producing Klebsiella pneumoniae assessed as resistant isolate by broth microdilution method in presence of Tazobactam
Pseudomonas aeruginosa [20] = assay: Antimicrobial activity against Pseudomonas aeruginosa isolated from ICU patient assessed as resistant isolate by broth microdilution method in presence of Tazobactam
Enterobacter cloacae [21] = assay: Antimicrobial activity against Enterobacter cloacae with nonderepressed AmpC beta-lactamsae assessed as susceptible isolate by broth microdilution method in presence of Tazobactam
Serratia marcescens [22] = assay: Antimicrobial activity against ceftazidime susceptible Serratia marcescens by broth microdilution method in presence of Tazobactam
Enterobacter cloacae [23] = assay: Antimicrobial activity against Enterobacter cloacae with derepressed AmpC beta-lactamsae assessed as intermediate isolate by broth microdilution method in presence of Tazobactam
Citrobacter [24] = assay: Antimicrobial activity against Citrobacter with nonderepressed AmpC beta-lactamsae by broth microdilution method in presence of Tazobactam
Enterobacteriaceae [25] = assay: Antimicrobial activity against ceftazidime-susceptible Enterobacteriaceae assessed as susceptible isolate by broth microdilution method in presence of Tazobactam
Pseudomonas aeruginosa [26] = assay: Antimicrobial activity against ceftazidime susceptible Pseudomonas aeruginosa assessed as susceptible isolate by broth microdilution method in presence of Tazobactam
Proteus mirabilis [27] = assay: Antimicrobial activity against Non-ESBL Proteus mirabilis assessed as susceptible isolate by broth microdilution method in presence of Tazobactam
Enterobacter cloacae [28] = assay: Antimicrobial activity against Enterobacter cloacae with nonderepressed AmpC beta-lactamsae assessed as resistant isolate by broth microdilution method in presence of Tazobactam
Acinetobacter [29] = assay: Antimicrobial activity against imipenem susceptible Acinetobacter assessed as resistant isolate by broth microdilution method in presence of Tazobactam
Klebsiella pneumoniae [30] = assay: Antimicrobial activity against ESBL producing Klebsiella pneumoniae assessed as intermediate isolate by broth microdilution method in presence of Tazobactam
Citrobacter [31] = assay: Antimicrobial activity against Citrobacter with nonderepressed AmpC beta-lactamsae assessed as resistant isolate by broth microdilution method in presence of Tazobactam
Citrobacter [32] = assay: Antimicrobial activity against Citrobacter with nonderepressed AmpC beta-lactamsae assessed as susceptible isolate by broth microdilution method in presence of Tazobactam
Pseudomonas aeruginosa [33] = assay: Antimicrobial activity against imipenem non-susceptible Pseudomonas aeruginosa assessed as resistant isolate by broth microdilution method in presence of Tazobactam
Escherichia coli [34] = assay: Antimicrobial activity against ESBL producing Escherichia coli assessed as resistant isolate by broth microdilution method in presence of Tazobactam
Klebsiella pneumoniae [35] = assay: Antimicrobial activity against ESBL producing Klebsiella pneumoniae assessed as susceptible isolate by broth microdilution method in presence of Tazobactam
Serratia marcescens [36] = assay: Antimicrobial activity against Ceftazidime non-susceptible Serratia marcescens by broth microdilution method in presence of tazobactam
Escherichia coli [37] = assay: Antimicrobial activity against Non-ESBL Escherichia coli by broth microdilution method in presence of Tazobactam
Pseudomonas aeruginosa [38] = assay: Antimicrobial activity against imipenem non-susceptible Pseudomonas aeruginosa assessed as intermediate isolate by broth microdilution method in presence of Tazobactam
Pseudomonas aeruginosa [39] = assay: Antimicrobial activity against Pseudomonas aeruginosa isolated from ICU patient assessed as intermediate isolate by broth microdilution method
Pseudomonas aeruginosa [40] = assay: Antimicrobial activity against Pseudomonas aeruginosa isolated from ICU patient assessed as susceptible isolate by broth microdilution method in presence of Tazobactam
Enterobacteriaceae [41] = assay: Antimicrobial activity against ceftazidime-susceptible Enterobacteriaceae by broth microdilution method in presence of Tazobactam
Pseudomonas aeruginosa [42] = assay: Antimicrobial activity against Pseudomonas aeruginosa isolated from non-ICU patient assessed as susceptible isolate by broth microdilution method in presence of Tazobactam
Escherichia coli [43] = assay: Antimicrobial activity against Non-ESBL Escherichia coli assessed as susceptible isolate by broth microdilution method in presence of Tazobactam
Citrobacter [44] = assay: Antimicrobial activity against Citrobacter with derepressed AmpC beta-lactamsae assessed as susceptible isolate by broth microdilution method in presence of Tazobactam
Serratia marcescens [45] = assay: Antimicrobial activity against Ceftazidime non-susceptible Serratia marcescens assessed as intermediate isolate by broth microdilution method in presence of tazobactam
Pseudomonas aeruginosa [46] = assay: Antimicrobial activity against Ceftazidime non-susceptible Pseudomonas aeruginosa assessed as resistant isolate by broth microdilution method in presence of tazobactam
Pseudomonas aeruginosa [47] = assay: Antimicrobial activity against Ceftazidime non-susceptible Pseudomonas aeruginosa assessed as intermediate isolate by broth microdilution method in presence of tazobactam
Proteus mirabilis [48] = assay: Antimicrobial activity against ESBL producing Proteus mirabilis assessed as susceptible isolate by broth microdilution method in presence of Tazobactam

## CC(C)(O/N=C(\C(=O)N[C@@H]1C(=O)N2C(C(=O)[O-])=C(C[n+]3ccccc3)CS[C@H]12)c1csc(N)n1)C(=O)O [CEFTAZIDIME]
Escherichia coli [1]
  Activity: 0.9%
Enterobacter cloacae [2]
  Activity: 5.7%
Citrobacter [3]
  Activity: 100%
Proteus mirabilis [4]
  Activity: 0%

## C[C@@H](O)[C@H]1C(=O)N2C(C(=O)O)=C(SCCNC=N)C[C@H]12 [IMIPENEM ANHYDROUS]
Citrobacter [5]
  Activity: 0.2%
Proteus mirabilis [6]
  Activity: 0.2%

## C[C@@H](O)[C@H]1C(=O)N2C(C(=O)O)=C(S[C@@H]3CN[C@H](C(=O)N(C)C)C3)[C@H](C)[C@H]12 [MEROPENEM]
Klebsiella pneumoniae [7]
  Activity: 0.3%

## CCN1CCN(C(=O)N[C@@H](C(=O)N[C@@H]2C(=O)N3[C@@H]2SC(C)(C)[C@@H]3C(=O)O)c2ccccc2)C(=O)C1=O [PIPERACILLIN]
Serratia marcescens [8]
  Activity: 20%
Pseudomonas aeruginosa [9]
  Activity: 9.4%
Pseudomonas aeruginosa [10]
  Activity: 0%
Enterobacteriaceae [11]
  Activity: 63.8%
Pseudomonas aeruginosa [12]
  MIC50: 16 µg/mL
  MIC90: > 128 µg/mL
Citrobacter [13]
  Activity: 29.1%
Pseudomonas aeruginosa [14]
  Activity: 90.6%
Serratia marcescens [15]
  Activity: 93.6%
Acinetobacter [16]
  Activity: 52.1%
Enterobacteriaceae [17]
  Activity: 1.9%
Pseudomonas aeruginosa [18]
  MIC50: 16 µg/mL
  MIC90: 64 µg/mL
Klebsiella pneumoniae [19]
  Activity: 77.3%
Pseudomonas aeruginosa [20]
  Activity: 21.6%
Enterobacter cloacae [21]
  Activity: 93.3%
Serratia marcescens [22]
  MIC50: 4 µg/mL
  MIC90: 16 µg/mL
Enterobacter cloacae [23]
  Activity: 11.7%
Citrobacter [24]
  MIC50: 4 µg/mL
  MIC90: 16 µg/mL
Enterobacteriaceae [25]
  Activity: 95.8%
Pseudomonas aeruginosa [26]
  Activity: 96.3%
Proteus mirabilis [27]
  Activity: 99.4%
Enterobacter cloacae [28]
  Activity: 3.5%
Acinetobacter [29]
  Activity: 29.8%
Klebsiella pneumoniae [30]
  Activity: 11.4%
Citrobacter [31]
  Activity: 2.6%
Citrobacter [32]
  Activity: 93.7%
Pseudomonas aeruginosa [33]
  Activity: 27.1%
Escherichia coli [34]
  Activity: 30%
Klebsiella pneumoniae [35]
  Activity: 11.4%
Serratia marcescens [36]
  MIC50: 64 µg/mL
  MIC90: > 128 µg/mL
Escherichia coli [37]
  MIC50: 4 µg/mL
  MIC90: 8 µg/mL
Pseudomonas aeruginosa [38]
  Activity: 0%
Pseudomonas aeruginosa [39]
  MIC50: 16 µg/mL
  MIC90: > 128 µg/mL
Pseudomonas aeruginosa [40]
  Activity: 78.4%
Enterobacteriaceae [41]
  MIC50: 4 µg/mL
  MIC90: 8 µg/mL
Pseudomonas aeruginosa [42]
  Activity: 87%
Escherichia coli [43]
  Activity: 93.6%
Citrobacter [44]
  Activity: 3.6%
Serratia marcescens [45]
  Activity: 30%
Pseudomonas aeruginosa [46]
  Activity: 82.7%
Pseudomonas aeruginosa [47]
  Activity: 0%
Proteus mirabilis [48]
  Activity: 100%
